The experiment addresses T1, SIRT1 (Homo sapiens, UniProt Q96EB6).
T1 sequence (Q96EB6 1-747): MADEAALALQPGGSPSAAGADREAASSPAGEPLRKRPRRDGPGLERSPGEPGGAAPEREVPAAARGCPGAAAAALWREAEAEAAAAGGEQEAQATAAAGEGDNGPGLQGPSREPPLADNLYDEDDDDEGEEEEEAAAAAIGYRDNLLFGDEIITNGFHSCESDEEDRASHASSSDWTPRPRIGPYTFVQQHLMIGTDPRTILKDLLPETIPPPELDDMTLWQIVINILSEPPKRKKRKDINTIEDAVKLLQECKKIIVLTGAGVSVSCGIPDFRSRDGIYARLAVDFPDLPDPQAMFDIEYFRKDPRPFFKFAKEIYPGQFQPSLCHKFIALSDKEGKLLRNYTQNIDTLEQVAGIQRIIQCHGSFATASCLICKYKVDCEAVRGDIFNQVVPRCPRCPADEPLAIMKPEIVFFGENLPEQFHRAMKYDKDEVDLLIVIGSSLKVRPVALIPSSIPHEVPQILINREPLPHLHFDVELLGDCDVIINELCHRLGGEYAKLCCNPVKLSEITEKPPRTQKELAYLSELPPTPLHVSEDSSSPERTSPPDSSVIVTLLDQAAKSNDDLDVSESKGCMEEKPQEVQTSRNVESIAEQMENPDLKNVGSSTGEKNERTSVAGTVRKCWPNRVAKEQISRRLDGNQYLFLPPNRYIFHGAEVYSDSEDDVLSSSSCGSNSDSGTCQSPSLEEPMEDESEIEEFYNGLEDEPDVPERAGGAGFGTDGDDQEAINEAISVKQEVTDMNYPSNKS
Kind of experiment: Trp mass spectrometry assay (SIRT1 activation). It is filed as biochemical. The following applies: for Emax: percent maximum fold activation of SIRT1, read-out: Tryp % Fold Act. The source says:
Mass spectrometry based assays were used to identify modulators of SIRT1 activity. […] The peptide was labeled with the fluorophore 5TMR (excitation 540 nm/emission 580 nm) at the C-terminus. The sequence of the peptide substrate was based on p53 with several modifications. In addition, the methionine residue naturally present in the sequence was replaced with the norleucine because the methionine may be susceptible to oxidation during synthesis and purification. The Trp based assay utilized a peptide having an amino acid residues as follows: Ac-R-H-K-K(Ac)-W-NH2 (SEQ ID NO: 2).
The Trp mass spectrometry assay was conducted as follows. 0.5 μM peptide substrate and 120 μM βNAD^+ were incubated with 10 nM SIRT1 for 25 minutes at 25° C. in a reaction buffer (50 mM HEPES pH 7.5, […] NaCl, 1 mM DTT, 0.05% BSA). The SIRT1 protein was obtained by cloning the SirT1 gene into a T7-promoter containing vector, which was then expressed in BL21(DE3) bacterial cells and purified as described in further detail below. Test compound was added at varying concentrations to this reaction mixture and the resulting reactions were monitored. After the 25 minute incubation with SIRT1, 10 μL of 10% formic acid was added to stop the reaction. The resulting reactions were sealed and frozen for later mass spec analysis. The relative SIRT1 activity was then determined by measuring the amount of 0-acetyl-ADP-ribose (OAADPR) formed (or, alternatively, the amount of deacetylated Trp peptide generated) by the NAD-dependent sirtuin deacetylation reaction in the presence of varying concentrations of the test compound versus control reactions lacking the test compound. The degree to which the test agent activated deacetylation by SIRT1 was expressed as EC1.5 (i.e., the concentration of compound required to increase SIRT1 activity by 50% over the control lacking test compound), and Percent Maximum Activation (i.e., the maximum activity relative to control (100%) obtained for the test compound).
A control for activation of sirtuin activity was conducted using 10 nM of sirtuin protein, with 1 μL of DMSO in place of compound, to determine the amount of deacetylation of the substrate at a given time point within the linear range of the assay. This time point was the same as that used for test compounds and, within the linear range, the endpoint represents a change in velocity.
For the above assay, SIRT1 protein was expressed and purified as follows. The SirT1 gene was cloned into a T7-promoter containing vector and transformed into BL21(DE3). The protein was expressed by induction with 1 mM IPTG as an N-terminal His-tag fusion protein at 18° C. overnight and harvested at 30,000×g. Cells were lysed with lysozyme in lysis buffer (50 mM Tris-HCl, 2 mM Tris[2-carboxyethyl] phosphine (TCEP), 10 μM ZnCl2, 200 mM NaCl) and further treated with sonication for 10 min for complete lysis. The protein was purified over a Ni-NTA column (Amersham) and fractions containing pure protein were pooled, concentrated and run over a sizing column (Sephadex S200 26/60 global). The peak containing soluble protein was collected and run on an Ion-exchange column (MonoQ). Gradient elution (200 mM-500 mM NaCl) yielded pure protein. This protein was concentrated and dialyzed against dialysis buffer (20 mM Iris-HCl, 2 mM TCEP) overnight. The protein was aliquoted and frozen at −80° C. until further use.

Where [1] appears, read: Trp mass spectrometry assay, EC1.5 = concentration of test compound that results in 150% activation of SIRT1.
The mark [2] stands for this setting: concentration of test compound that results in 150% activation of SIRT1, Trp peptide substrate.

Like-named read-outs stand apart in the source and are kept apart here.

With `O=C(Nc1cccc(-c2cnco2)c1)N1c2nc(-c3cccc(C(F)(F)F)c3)ccc2N2CC[C@H]1C2` [68 (1)], under setting [1], the “Tryp AVG EC1.5 (μM)” value was “A (EC1.5<1 μM)”. In addition, the Emax (Trp mass spectrometry assay) was at least 150%. For `Cc1cnc2c(NC(=O)N3c4nc(-c5cccc(C(F)(F)F)c5)ccc4N4CC[C@H]3C4)cccc2n1` [76 (8)], under setting [1], the “Tryp AVG EC1.5 (μM)” value is “A (EC1.5<1 μM)”. Also, the Emax (Trp mass spectrometry assay) was at least 150%. `CCn1ncc2c(NC(=O)N3c4nc(-c5cccc(C(F)(F)F)c5)ccc4N4CC[C@H]3C4)cccc21` [81 (9)]: the “Tryp AVG EC1.5 (μM)” value under setting [1] is “A (EC1.5<1 μM)”. The Emax (Trp mass spectrometry assay) is at least 150%. Take `O=C(Nc1cccnc1)N1c2nc(-c3cccc(C(F)(F)F)c3)ccc2N2CCC[C@H]1C2` [314 (5)]: under setting [2], the “Tryp AVG EC1.5 (μM)” value was “A (EC1.5<1 μM)”. Besides, the Emax (Trp peptide substrate) was at least 150%. For the compound `NCc1ccc(NC(=O)N2c3nc(-c4cccc(C(F)(F)F)c4)ccc3N3CCC[C@H]2C3)cc1` [444 (4)], the “Tryp AVG EC1.5 (μM)” value under setting [2] is given as “A (EC1.5<1 μM)”. Moreover, the Emax (Trp peptide substrate) was at least 150%. Turning to `O=C(CCCCCNC(=O)c1ccc(-c2c3ccc(=O)cc-3oc3cc(O)ccc23)c(C(=O)O)c1)NCc1ccc(NC(=O)N2c3nc(-c4cccc(C(F)(F)F)c4)ccc3N3CCC[C@H]2C3)cc1` [546 (3)], the “Tryp AVG EC1.5 (μM)” value under setting [2] is recorded as “B (EC1.5 1-25 μM)”. Further, the Emax (Trp peptide substrate) is under 150%. For `O=C(Nc1ccccn1)N1c2nc(-c3cccc(C(F)(F)F)c3)ccc2N2CC[C@H]1C2` [816 (7)], the “Tryp AVG EC1.5 (μM)” value (Trp mass spectrometry assay, EC1.5 = concentration giving 150% activation of SIRT1) is listed as “A (EC1.5<1 μM)”. In addition, where the note is “Trp mass spectrometry assay”, the Emax was at least 150%.

For `COc1cc(NC(=O)N2c3nc(-c4cncc(C)c4)ccc3N3CCC[C@H]2C3)ncn1` [EX-527, reference compound], under setting [2], the “Tryp AVG EC1.5 (μM)” value is recorded as “A (EC1.5<1 μM)”. Moreover, the Emax (Trp peptide substrate) was at least 150%. Consider `O=C(Nc1cnccn1)N1c2nc(-c3cccc(C(F)(F)F)c3)ccc2N2CC[C@H]1C2` [Example 10], for which the Emax (Trp mass spectrometry assay) was at least 150%. As for `O=C(Nc1cccnn1)N1c2nc(-c3cccc(C(F)(F)F)c3)ccc2N2CC[C@H]1C2` [Example 11], the Emax (Trp mass spectrometry assay) was at least 150%. As to `O=C(Nc1ccncn1)N1c2nc(-c3cccc(C(F)(F)F)c3)ccc2N2CC[C@H]1C2` [Example 12], the Emax (Trp mass spectrometry assay) is at least 150%. Consider `Cc1cc(C)nc(NC(=O)N2c3nc(-c4cccc(C(F)(F)F)c4)ccc3N3CC[C@H]2C3)c1` [Example 13], for which, where the note is “Trp mass spectrometry assay”, the Emax was at least 150%. Regarding `Cc1cccnc1NC(=O)N1c2nc(-c3cccc(C(F)(F)F)c3)ccc2N2CC[C@H]1C2` [Example 14], where the note is “Trp mass spectrometry assay”, the Emax was under 150%. For `O=C(Nc1ccncc1F)N1c2nc(-c3cccc(C(F)(F)F)c3)ccc2N2CC[C@H]1C2` [Example 15], the Emax (Trp mass spectrometry assay) was at least 150%. Consider `O=C(Nc1ccnc(O[C@H]2CCOC2)n1)N1c2nc(-c3cccc(C(F)(F)F)c3)ccc2N2CC[C@H]1C2` [Example 16], for which the Emax (Trp mass spectrometry assay) was at least 150%.

In the case of `O=C(Nc1cccnc1)N1c2nc(-c3cccc(C(F)(F)F)c3)ccc2N2CC[C@H]1C2` [Example 17], the Emax (Trp mass spectrometry assay) is at least 150%. `O=C(Nc1cnc(OC[C@H](O)CO)cn1)N1c2nc(-c3cccc(C(F)(F)F)c3)ccc2N2CC[C@H]1C2` [Example 18]: the Emax (Trp mass spectrometry assay) is at least 150%.

Consider `O=C(Nc1ccccn1)N1c2nc(-c3cccc(Cl)c3)ccc2N2CC[C@H]1C2` [Example 19], for which the Emax (Trp mass spectrometry assay) is at least 150%. Take `O=C(Nc1cncc(F)c1)N1c2nc(-c3cccc(C(F)(F)F)c3)ccc2N2CC[C@H]1C2` [Example 20]: the Emax (Trp mass spectrometry assay) was at least 150%. For the compound `Cc1cnccc1NC(=O)N1c2nc(-c3cccc(C(F)(F)F)c3)ccc2N2CC[C@H]1C2` [Example 21], for the setting “Trp mass spectrometry assay”, the Emax is at least 150%. Same read-out and setting: then `COc1cc(NC(=O)N2c3nc(-c4cccc(C(F)(F)F)c4)ccc3N3CC[C@H]2C3)nc(OC)n1` [Example 22], with at least 150%. Same read-out and setting: the value for `O=C(Nc1cncnc1)N1c2nc(-c3cccc(C(F)(F)F)c3)ccc2N2CC[C@H]1C2` [Example 23] was at least 150%. Still for that read-out and setting: then `O=C(Nc1ccncc1F)N1c2nc(-c3cccc(Cl)c3)ccc2N2CC[C@H]1C2` [Example 24], with at least 150%. Take `Cn1ccc(NC(=O)N2c3nc(-c4cccc(C(F)(F)F)c4)ccc3N3CC[C@H]2C3)n1` [Example 25]: where the note is “Trp mass spectrometry assay”, the Emax is at least 150%. Regarding `Cc1cc(OCC(O)CO)nc(NC(=O)N2c3nc(-c4cccc(C(F)(F)F)c4)ccc3N3CC[C@H]2C3)n1` (some centres unmarked) [Example 26], under setting [1], the “Tryp AVG EC1.5 (μM)” value is “B (EC1.5 1-25 μM)”. In addition, the Emax (Trp mass spectrometry assay) is at least 150%.

For the compound `O=C(Nc1cnccn1)N1c2nc(-c3cccc(C(F)(F)F)c3)ccc2N2CCC[C@H]1C2` [Example 27], the Emax (Trp mass spectrometry assay) is at least 150%. Same read-out and setting: the value for `O=C(Nc1cccnn1)N1c2nc(-c3cccc(C(F)(F)F)c3)ccc2N2CCC[C@H]1C2` [Example 28] was at least 150%. Regarding `O=C(Nc1ccncn1)N1c2nc(-c3cccc(C(F)(F)F)c3)ccc2N2CCC[C@H]1C2` [Example 29], the Emax (Trp mass spectrometry assay) was at least 150%.

Regarding `Cc1cc(C)nc(NC(=O)N2c3nc(-c4cccc(C(F)(F)F)c4)ccc3N3CCC[C@H]2C3)c1` [Example 30], the Emax (Trp mass spectrometry assay) was at least 150%. The same measure, in the same setting: the value for `COc1cc(NC(=O)N2c3nc(-c4cccc(C(F)(F)F)c4)ccc3N3CCC[C@H]2C3)nc(OC)n1` [Example 31] was at least 150%; that for `COc1nccc(NC(=O)N2c3nc(-c4cccc(C(F)(F)F)c4)ccc3N3CCC[C@H]2C3)n1` [Example 32] was at least 150%. Still for that read-out and setting: then `Cc1nc(NC(=O)N2c3nc(-c4cccc(C(F)(F)F)c4)ccc3N3CCC[C@H]2C3)sc1C` [Example 33], with at least 150%; and `COc1cc(NC(=O)N2c3nc(-c4cccc(C(F)(F)F)c4)ccc3N3CC[C@H]2C3)ncn1` [Example 34], with at least 150%; and `Cc1cccnc1NC(=O)N1c2nc(-c3cccc(C(F)(F)F)c3)ccc2N2CCC[C@H]1C2` [Example 35], with at least 150%. Still for that read-out and setting: then `Cn1ccc(NC(=O)N2c3nc(-c4cccc(C(F)(F)F)c4)ccc3N3CCC[C@H]2C3)n1` [Example 36], with at least 150%; and `Cc1cnccc1NC(=O)N1c2nc(-c3cccc(C(F)(F)F)c3)ccc2N2CCC[C@H]1C2` [Example 37], with at least 150%; and `O=C(Nc1cncnc1)N1c2nc(-c3cccc(C(F)(F)F)c3)ccc2N2CCC[C@H]1C2` [Example 38], with at least 150%.

For `O=C(Nc1ccc(F)cn1)N1c2nc(-c3cccc(C(F)(F)F)c3)ccc2N2CCC[C@H]1C2` [Example 39], the Emax (Trp mass spectrometry assay) was at least 150%. The same measure, in the same setting: then `Cn1cc(NC(=O)N2c3nc(-c4cccc(C(F)(F)F)c4)ccc3N3CCC[C@H]2C3)cn1` [Example 40], with at least 150%; and `COc1cc(NC(=O)N2c3nc(-c4cccc(C(F)(F)F)c4)ccc3N3CCC[C@H]2C3)ncn1` [Example 41], with at least 150%. In the case of `O=C(Nc1ccncc1F)N1c2nc(-c3cccc(C(F)(F)F)c3)ccc2N2CCC[C@H]1C2` [Example 42], the Emax (Trp mass spectrometry assay) is at least 150%.

The values above are taken from patent publication US9765075B2, “Substituted bridged urea analogs as sirtuin modulators” (GLAXOSMITHKLINE LLC, priority 2013, dated 2017).
